This is an account of results in patent publication US12173018B2, “Penicillin-binding protein inhibitors” (priority 2018, dated 2024).

Molecules are shown by their SMILES. Values after ≈ are worked out from the molar mass of the structure shown. Where two headings read alike, the source gives them in different places.

One assay concerns N. gonorrhoeae FA19. Nature of the assay: Liquid broth MIC, N. gonorrhoeae FA19. The format is cell-based. The following applies: Neisseria gonorrhoeae; N. gonorrhoeae FA19, liquid broth; read-out: Minimum Inhibitory Concentration, N. gonorrhoeae FA19. The method, boiled down:
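Visual MIC: lowest concentration well showing no bacterial growth after 40-42 h at 36° C in 5% CO2. Inoculum 5×10^5 CFU/mL from colonies swabbed into GC broth, set by OD600; compounds in 2-fold serial dilution.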

Another assay concerns the target E. coli PBP3 (Escherichia coli (strain K12), UniProt P0AD68). In words: E. coli PBP3 Bocillin-FL fluorescence polarization competition binding assay. The method, boiled down: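 Purified PBP (1.5 μM final) was combined with test compound (0–1000 μM) and Bocillin-FL (fluorescent penicillin V, 0.1 μM final) in 50 mM Hepes pH 8.0, 300 mM NaCl, 5% glycerol.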
For orientation: Polarisation of emitted light reports the rotation of a fluorescent probe.

In a further assay the test system is K. pneumoniae UMM. Nature of the assay: microbe, parasite or virus in culture. The class given is cell-based. Particulars: Klebsiella pneumoniae, read-out: MIC K. pneumoniae UMM. The method, boiled down: (§1)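 MIC = lowest concentration showing no visible growth after 16-20 h at 37° C. Cation-adjusted MH broth, 2-fold serial dilutions, starting inoculum 5×10^5 CFU/mL, per CLSI methods.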

The next assay deals with E. coli AG100A. In words: microbe, parasite or virus in culture. The format is cell-based. Particulars: Escherichia coli, read-out: MIC E. coli AG100A. The method, boiled down: as §1
The next assay concerns E. coli D22. Nature of the assay: microbe, parasite or virus in culture. The class given is cell-based. The following applies: Escherichia coli. The method, boiled down:
as §1

The next assay concerns K. pneumoniae SI-117. In words: microbe, parasite or virus in culture. The format is cell-based. Particulars: Klebsiella pneumoniae, SI117, read-out: MIC K. pneumoniae SI-117. The method in brief:
as §1

For a further assay, the system named is E. coli 901C. In words: microbe, parasite or virus in culture. The following applies: Escherichia coli, read-out: MIC E. coli 901C. The format is cell-based. The method, boiled down:
as §1

The mark [1] stands for this setting: K. pneumoniae UMM producing SHV-5 and KPC-2.
The mark [2] stands for this setting: hyper-permeable E. coli D22, broth microdilution, read-out: MIC E. coli D22.
Setting [3] is: hyper-permeable E. coli 901C, broth microdilution.
[4] abbreviates: fluorescence polarization competition binding with Bocillin-FL, read-out: E. coli K12 PBP3 Potency.

Chain of E. coli PBP3 (P0AD68 whole entry): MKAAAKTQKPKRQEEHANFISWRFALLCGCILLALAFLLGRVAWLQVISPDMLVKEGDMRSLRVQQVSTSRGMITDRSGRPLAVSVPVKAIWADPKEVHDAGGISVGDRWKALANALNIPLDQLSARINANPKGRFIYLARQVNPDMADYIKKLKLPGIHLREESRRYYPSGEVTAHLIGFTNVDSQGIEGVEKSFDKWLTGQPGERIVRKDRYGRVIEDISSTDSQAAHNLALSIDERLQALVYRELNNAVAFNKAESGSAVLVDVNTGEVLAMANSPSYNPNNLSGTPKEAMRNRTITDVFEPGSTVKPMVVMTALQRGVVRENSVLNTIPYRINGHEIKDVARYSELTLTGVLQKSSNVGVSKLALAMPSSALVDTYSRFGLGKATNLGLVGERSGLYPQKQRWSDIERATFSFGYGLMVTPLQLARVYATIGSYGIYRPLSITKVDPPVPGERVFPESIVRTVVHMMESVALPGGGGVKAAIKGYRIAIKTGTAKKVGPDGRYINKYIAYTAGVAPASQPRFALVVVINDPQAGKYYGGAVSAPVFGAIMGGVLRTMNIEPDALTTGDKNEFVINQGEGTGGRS

Take `CCN1CCN(C(=O)NC(C(=O)N[C@H]2Cc3ccc(Cl)c(C(=O)O)c3OB2O)c2ccc(O)c(O)c2Cl)C(=O)C1=O` (stereo partly drawn) [Example 217, (3R)-7-chloro-3-(2-(2-chloro-3,4-dihydroxyphenyl)-2-(4-ethyl-2,3-dioxopiperazine-1-carboxamido)acetamido)-2-hydroxy-3,4-dihydro-2H-benzo[e][1,2]oxaborinine-8-carboxylic acid]: the MIC lay within 4 to 8 µg/mL (≈ 6.57 to 13.1 µM) with N. gonorrhoeae FA19; 2 to 4 µg/mL in the assay on K. pneumoniae UMM (setting [1]); 2 to 4 µg/mL in the assay on E. coli AG100A; 2 to 4 µg/mL in the assay with E. coli D22 (setting [2]); 2 to 4 µg/mL with K. pneumoniae SI-117; 2 to 4 µg/mL in the assay with E. coli 901C (setting [3]). For the same compound, the EC50 at E. coli PBP3 fell in the range of 30 to 500 µM.
For the compound `CCN1CCN(C(=O)NC(C(=O)N[C@H]2Cc3ccc(Cl)c(C(=O)O)c3OB2O)c2ncc(O)cc2F)C(=O)C1=O` (stereo partly drawn) [Example 216, (3R)-7-chloro-3-(2-(4-ethyl-2,3-dioxopiperazine-1-carboxamido)-2-(3-fluoro-5-hydroxypyridin-2-yl)acetamido)-2-hydroxy-3,4-dihydro-2H-benzo[e][1,2]oxaborinine-8-carboxylic acid], the MIC with N. gonorrhoeae FA19 lay in the range of 1 to 2 µg/mL (≈ 1.73 to 3.46 µM); in the assay with K. pneumoniae UMM (setting [1]), 32 to 64 µg/mL; in the assay on E. coli AG100A it was 8 to 16 µg/mL; in the assay on E. coli D22 (setting [2]) it was 2 to 4 µg/mL; with K. pneumoniae SI-117, 32 to 64 µg/mL; in the assay on E. coli 901C (setting [3]) it was 0.5 to 1 µg/mL. Also, on E. coli PBP3 (setting [4]), the EC50 was under 30 µM.
As to `NCCN1CCN(C(=O)N[C@@H](C(=O)N[C@H]2Cc3ccc(F)c(C(=O)O)c3OB2O)c2ccc(O)c(O)c2Cl)C(=O)C1=O` [Example 227, (R)-3-((R)-2-(4-(2-aminoethyl)-2,3-dioxopiperazine-1-carboxamido)-2-(2-chloro-3,4-dihydroxyphenyl)acetamido)-7-fluoro-2-hydroxy-3,4-dihydro-2H-benzo[e][1,2]oxaborinine-8-carboxylic acid], the MIC with N. gonorrhoeae FA19 is 4 to 8 µg/mL (≈ 6.58 to 13.2 µM); with K. pneumoniae UMM (setting [1]), 0.5 to 1 µg/mL; in the assay with E. coli AG100A it was under 0.25 µg/mL; with E. coli D22 (setting [2]), 0.5 to 1 µg/mL; in the assay on K. pneumoniae SI-117, 0.5 to 1 µg/mL; in the assay on E. coli 901C (setting [3]), under 0.25 µg/mL. In addition, on E. coli PBP3, the EC50 fell in the range of 30 to 500 µM.
As for `CCN1CCN(C(=O)NC(C(=O)N[C@H]2Cc3cccc(C(=O)O)c3OB2O)c2ccc(S(N)(=O)=O)c(F)c2)C(=O)C1=O` (stereo partly drawn) [Example 210, (3R)-3-(2-(4-ethyl-2,3-dioxopiperazine-1-carboxamido)-2-(3-fluoro-4-sulfamoylphenyl)acetamido)-2-hydroxy-3,4-dihydro-2H-benzo[e][1,2]oxaborinine-8-carboxylic acid], the MIC is 1 to 2 µg/mL (≈ 1.65 to 3.3 µM) in the assay with N. gonorrhoeae FA19; 32 to 64 µg/mL in the assay on K. pneumoniae UMM (setting [1]); 2 to 4 µg/mL in the assay on E. coli AG100A; 2 to 4 µg/mL with E. coli D22 (setting [2]); over 128 µg/mL in the assay with K. pneumoniae SI-117; under 0.25 µg/mL with E. coli 901C (setting [3]). The compound further gave an EC50 at E. coli PBP3 of 30 to 500 µM.
Turning to `CCN1CCN(C(=O)NC(C(=O)N[C@H]2Cc3cccc(C(=O)O)c3OB2O)c2nc(N)sc2F)C(=O)C1=O` (stereo partly drawn) [Example 205, (3R)-3-(2-(2-amino-5-fluorothiazol-4-yl)-2-(4-ethyl-2,3-dioxopiperazine-1-carboxamido)acetamido)-2-hydroxy-3,4-dihydro-2H-benzo[e][1,2]oxaborinine-8-carboxylic acid], the MIC was under 0.125 µg/mL in the assay on N. gonorrhoeae FA19; over 128 µg/mL with K. pneumoniae UMM (setting [1]); 0.5 to 1 µg/mL with E. coli AG100A; 0.5 to 1 µg/mL in the assay on E. coli D22 (setting [2]); 32 to 64 µg/mL in the assay on K. pneumoniae SI-117; under 0.25 µg/mL in the assay with E. coli 901C (setting [3]). Moreover, the EC50 on E. coli PBP3 (setting [4]) was under 30 µM.
As for `NS(=O)(=O)c1ccc(C(NC(=O)N2CCN(CCF)C(=O)C2=O)C(=O)N[C@H]2Cc3ccc(F)c(C(=O)O)c3OB2O)cc1` (stereo partly drawn) [Example 182, (3R)-7-fluoro-3-(2-(4-(2-fluoroethyl)-2,3-dioxopiperazine-1-carboxamido)-2-(4-sulfamoylphenyl)acetamido)-2-hydroxy-3,4-dihydro-2H-benzo[e][1,2]oxaborinine-8-carboxylic acid], the MIC was 4 to 8 µg/mL (≈ 6.42 to 12.8 µM) in the assay with N. gonorrhoeae FA19; 32 to 64 µg/mL with K. pneumoniae UMM (setting [1]); 32 to 64 µg/mL in the assay on E. coli AG100A; 2 to 4 µg/mL with E. coli D22 (setting [2]); over 128 µg/mL in the assay with K. pneumoniae SI-117; 0.5 to 1 µg/mL with E. coli 901C (setting [3]). The same compound returned an EC50 on E. coli PBP3 of 30 to 500 µM.
Turning to `CCN1C[C@H](CCN)N(C(=O)NC(C(=O)N[C@H]2Cc3ccc(F)c(C(=O)O)c3OB2O)c2ccc(O)c(O)c2Cl)C(=O)C1=O` (stereo partly drawn) [Example 238, (3R)-3-(2-((S)-6-(2-aminoethyl)-4-ethyl-2,3-dioxopiperazine-1-carboxamido)-2-(2-chloro-3,4-dihydroxyphenyl)acetamido)-7-fluoro-2-hydroxy-3,4-dihydro-2H-benzo[e][1,2]oxaborinine-8-carboxylic acid], the MIC in the assay with N. gonorrhoeae FA19 was over 64 µg/mL; in the assay with K. pneumoniae UMM it was 8 to 16 µg/mL; with E. coli AG100A, 2 to 4 µg/mL; in the assay on E. coli D22 (D22, read-out: MIC E. coli D22), 8 to 16 µg/mL; with K. pneumoniae SI-117, 8 to 16 µg/mL; in the assay on E. coli 901C (901C) it was 2 to 4 µg/mL. Further, the EC50 at E. coli PBP3 lay in the range of 30 to 500 µM.
Take `CCN1CCN(C(=O)N[C@@H](C(=O)N[C@H]2Cc3ccc(F)c(C(=O)O)c3OB2O)c2ccc(O)c(F)c2)C(=O)C1=O` [Example 161, (R)-3-((R)-2-(4-ethyl-2,3-dioxopiperazine-1-carboxamido)-2-(3-fluoro-4-hydroxyphenyl)acetamido)-7-fluoro-2-hydroxy-3,4-dihydro-2H-benzo[e][1,2]oxaborinine-8-carboxylic acid]: the MIC in the assay with N. gonorrhoeae FA19 is 1 to 2 µg/mL (≈ 1.78 to 3.57 µM); in the assay on K. pneumoniae UMM (setting [1]), 32 to 64 µg/mL; with E. coli AG100A it was 32 to 64 µg/mL; in the assay on E. coli D22 (setting [2]), 2 to 4 µg/mL; in the assay with K. pneumoniae SI-117, over 128 µg/mL; in the assay on E. coli 901C (setting [3]), 0.5 to 1 µg/mL. For the same compound, the EC50 at E. coli PBP3 (setting [4]) was under 30 µM.
For `CCN1CCN(C(=O)NC(C(=O)N[C@H]2Cc3cccc(C(=O)O)c3OB2O)c2ccc(O)c(O)c2F)C(=O)C1=O` (stereo partly shown) [Example 70], the MIC in the assay on N. gonorrhoeae FA19 fell in the range of 1 to 2 µg/mL (≈ 1.79 to 3.58 µM); in the assay on K. pneumoniae UMM (setting [1]), 0.5 to 1 µg/mL; with E. coli AG100A it was 0.5 to 1 µg/mL; with E. coli D22 (setting [2]), 2 to 4 µg/mL; with K. pneumoniae SI-117 it was 8 to 16 µg/mL; in the assay on E. coli 901C (setting [3]), 0.5 to 1 µg/mL. Also, the EC50 at E. coli PBP3 (setting [4]) is under 30 µM.
Consider `CCN1CCN(C(=O)N[C@@H](C(=O)N[C@H]2Cc3cccc(C(=O)O)c3OB2O)c2ccc(O)c(O)c2Cl)C(=O)C1=O` [Example 190, (R)-3-((R)-2-(2-chloro-3,4-dihydroxyphenyl)-2-(4-ethyl-2,3-dioxopiperazine-1-carboxamido)acetamido)-2-hydroxy-3,4-dihydro-2H-benzo[e][1,2]oxaborinine-8-carboxylic acid], for which the MIC in the assay on N. gonorrhoeae FA19 is 4 to 8 µg/mL (≈ 6.96 to 13.9 µM); in the assay on K. pneumoniae UMM (setting [1]), 0.5 to 1 µg/mL; in the assay on E. coli AG100A, under 0.25 µg/mL; in the assay with E. coli D22 (setting [2]), 0.5 to 1 µg/mL; in the assay on K. pneumoniae SI-117, 2 to 4 µg/mL; with E. coli 901C (setting [3]) it was under 0.25 µg/mL. Also, at E. coli PBP3, the EC50 fell in the range of 30 to 500 µM.
`O=C(O)c1c(F)ccc2c1OB(O)[C@@H](NC(=O)C(NC(=O)N1CCN(CCF)C(=O)C1=O)c1ncc(O)cc1F)C2` (stereo partly drawn) [Example 183, (3R)-7-fluoro-3-(2-(3-fluoro-5-hydroxypyridin-2-yl)-2-(4-(2-fluoroethyl)-2,3-dioxopiperazine-1-carboxamido)acetamido)-2-hydroxy-3,4-dihydro-2H-benzo[e][1,2]oxaborinine-8-carboxylic acid]: the MIC in the assay with N. gonorrhoeae FA19 is 1 to 2 µg/mL (≈ 1.73 to 3.45 µM); with K. pneumoniae UMM (setting [1]), 8 to 16 µg/mL; in the assay with E. coli AG100A, 2 to 4 µg/mL; with E. coli D22 (setting [2]), 2 to 4 µg/mL; with K. pneumoniae SI-117, 32 to 64 µg/mL; in the assay on E. coli 901C (setting [3]), under 0.25 µg/mL. Moreover, on E. coli PBP3 (setting [4]), the EC50 was under 30 µM.
Regarding `CCN1CCN(C(=O)NC(C(=O)N[C@H]2Cc3cccc(C(=O)O)c3OB2O)c2csc(N)n2)C(=O)C1=O` (stereo partly drawn) [Example 5, (3R)-3-(2-(2-aminothiazol-4-yl)-2-(4-ethyl-2,3-dioxopiperazine-1-carboxamido)acetamido)-2-hydroxy-3,4-dihydro-2H-benzo[e][1,2]oxaborinine-8-carboxylic acid], the MIC was 1 to 2 µg/mL (≈ 1.89 to 3.77 µM) in the assay on N. gonorrhoeae FA19; 8 to 16 µg/mL in the assay on K. pneumoniae UMM (setting [1]); 2 to 4 µg/mL in the assay on E. coli AG100A; 2 to 4 µg/mL in the assay on E. coli D22 (setting [2]); 8 to 16 µg/mL in the assay with K. pneumoniae SI-117; under 0.25 µg/mL with E. coli 901C (setting [3]).
Take `CCN1CCN(C(=O)NC(C(=O)N[C@H]2Cc3cccc(C(=O)O)c3OB2O)c2ccc(S(N)(=O)=O)cc2)C(=O)C1=O` (stereo partly drawn) [Example 102, (3R)-3-(2-(4-ethyl-2,3-dioxopiperazine-1-carboxamido)-2-(4-sulfamoylphenyl)acetamido)-2-hydroxy-3,4-dihydro-2H-benzo[e][1,2]oxaborinine-8-carboxylic acid]: the MIC was 1 to 2 µg/mL (≈ 1.7 to 3.4 µM) in the assay with N. gonorrhoeae FA19, 32 to 64 µg/mL in the assay on K. pneumoniae UMM (setting [1]), 2 to 4 µg/mL in the assay on E. coli AG100A and under 0.25 µg/mL in the assay with E. coli 901C (setting [3]). Further, the EC50 on E. coli PBP3 (setting [4]) was under 30 µM.
